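Assay format: 96-well plates, 48-hour exposure. TGI is the concentration that stops growth completely.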
How the values were obtained:
Assay in all cases: growth of human tumour cells (NCI), 48 h
HCT-116 colon = system: HCT-116 colon
HT29 colon = system: HT29 colon
K-562 leukemia = system: K-562 leukemia
MALME-3M melanoma = system: MALME-3M melanoma
MCF7 breast = system: MCF7 breast
MDA-MB-231 breast = system: MDA-MB-231 breast
MOLT-4 leukemia = system: MOLT-4 leukemia
SK-MEL-2 melanoma = system: SK-MEL-2 melanoma
SNB-75 CNS = system: SNB-75 CNS
TK-10 renal = system: TK-10 renal

Compound | TGI (HCT-116 colon) [µM] | TGI (HT29 colon) [µM] | TGI (K-562 leukemia) [µM] | TGI (MALME-3M melanoma) [µM] | TGI (MCF7 breast) [µM] | TGI (MDA-MB-231 breast) [µM] | TGI (MOLT-4 leukemia) [µM] | TGI (SK-MEL-2 melanoma) [µM] | TGI (SNB-75 CNS) [µM] | TGI (TK-10 renal) [µM]
C=C1CC[C@@H]2[C@](C)(COC(=O)CCC(=O)O)CCC[C@@]2(C)[C@@H]1CCC1=CC(=O)OC1 | > 100 | > 100 | > 100 | > 100 | > 100 | > 100 | > 100 | > 100 | > 100 | > 100
CCN(CC)CCSc1c(C(C)=O)c(=O)n(-c2ccccc2)c(=S)n1-c1ccccc1 | 6.09 | 37.7 | > 43.7 | 20.7 | 8.45 | 26.9 | 19.3 | 31.6 | > 85.1 | 17.2
C[C@@H]1CC[C@@]2(C)[C@H](C)/C(=C\COC(=O)/C=C/c3ccc(O)c(O)c3)CC[C@@]12C | 14 | 25.1 | 17.8 | 27.8 | 15.2 | 20.5 | 8.9 | 25.4 | 28 | 11.5
C=C(C)[C@H]1CC(=O)[C@@]2(C)C[C@H]3O[C@]3(C)CC/C=C(\C)CC[C@H]12 | 85.4 | > 100 | 47.2 | > 100 | 57.3 | > 100 | 60.9 | > 100 | > 100 | 71.1
C#CCn1c(=O)ccn(/C(=C/C(=O)OCC)C(=O)OCC)c1=O | 18.7 | 5.64 | > 100 | 5.19 | 13 | 40.9 | > 56.4 | 30.2 | 46.5 | 3.68
CCCCCCCCCCCCCCCC(=O)OC1C(O)C(O)C(O)C(O)C12CO2 (stereo not given) | > 100 | > 100 | 67.8 | > 100 | > 100 | > 100 | 42.7 | > 100 | 93.2 | > 100
